# Results reported in publication PMC10155203 (Molecular Pharmaceutics, 2023).
# Where two headings read alike, the source gives them in different places.
# Assays:
# [1] = Physicochemical and biopharmaceutical properties obtained in-house (PBPK input, experimental data)
# Protocol: Simulations were performed using the commercially available PBPK modeling platform GastroPlus 9.8 (Simulations Plus, Inc., Lancaster, CA). Input and final parameters for the model were published by Del Frari et al.[29] […] The fasted, fed, and PPI states were predicted for the encorafenib commercial capsule. All input data for the platform are shown in Table 2 and were based on physicochemical properties of the compound, formulation characteristics and absorption, distribution, metabolism, and excretion properties. […] Related to dissolution, the Johnson model was selected. This model is an extension of the Nernst–Brunner dissolution model and accounts for changing particle radius during dissolution as well as for dissolution of cylindrical particles. […] Gathered information concerning physicochemical and biopharmaceutical properties was obtained in-house. Fasted state physiology in the human GI tract was simulated by selecting the fluid volumes as observed by the magnetic resonance imaging study of Mudie et al.[30] to address biorelevant fluid volumes in the different GI compartments. In the case of the fed state, the stomach transit time was adjusted and optimized to a value of 2.25 h for consistency with the observed PK data, and the physiology was adjusted to fed state conditions (default settings). To simulate PPI conditions, the fasted state physiology was selected (magnetic resonance imaging fluid volumes). However, gastric pH was set to a constant value of pH 7 during the simulation instead of the normal gastric pH of 1.3, as used in the fasted state default settings. […] However, the same results were observed even when the gastric pH was adjusted to a value of 4 or 5 (data not shown).[31] Distribution and clearance parameters were adjusted to reflect a 2-compartmental approach based on the average PK profile of the 100 mg dose as administered in the fasted state to healthy participants (average weight, 83 kg).
# [2] = PBPK modeling in GastroPlus 9.8 (model parameters and predicted absorption); parameters: species or system human; conditions: estimated; increased from GastroPlus default value
# Protocol: Simulations were performed using the commercially available PBPK modeling platform GastroPlus 9.8 (Simulations Plus, Inc., Lancaster, CA). Input and final parameters for the model were published by Del Frari et al.[29] […] The fasted, fed, and PPI states were predicted for the encorafenib commercial capsule. All input data for the platform are shown in Table 2 and were based on physicochemical properties of the compound, formulation characteristics and absorption, distribution, metabolism, and excretion properties. […] Related to dissolution, the Johnson model was selected. This model is an extension of the Nernst–Brunner dissolution model and accounts for changing particle radius during dissolution as well as for dissolution of cylindrical particles. […] Gathered information concerning physicochemical and biopharmaceutical properties was obtained in-house. Fasted state physiology in the human GI tract was simulated by selecting the fluid volumes as observed by the magnetic resonance imaging study of Mudie et al.[30] to address biorelevant fluid volumes in the different GI compartments. In the case of the fed state, the stomach transit time was adjusted and optimized to a value of 2.25 h for consistency with the observed PK data, and the physiology was adjusted to fed state conditions (default settings). […]
# CYP3A4 = test system: CYP3A4; parameters: method as in PMID 27693678; conditions: fitted using in vivo data; cited from earlier work
# [3] = cited from earlier work; for median Tmax: humans, single oral dose
# [4] = Study 2: PPI (rabeprazole) interaction clinical study, single oral dose of encorafenib, plasma PK and safety; format: in vivo, human; conditions: for Tmax: median (range); for Vd/F: read-out: Vz/F; for CL/F: mean ± SD
# Protocol: Both studies were conducted at the Celerion Clinical Research Unit in Lincoln, NE. The trial protocols and informed consent documentation were reviewed and approved by the institutional review boards at the center. These studies were conducted in compliance with the ethical principles originating in or derived from the Declaration of Helsinki and in compliance with all International Council for Harmonization Good Clinical Practice Guideline.
# The AEs described were consistent with the known safety profile of encorafenib.
# Additionally, participants were instructed not to crush, split, or chew the study drug. […]
# The actual sample collection times were used for the PK parameter analysis.
# The overall safety profile was characterized by laboratory test abnormalities, physical examination, vital signs, ECGs, and AEs. […] Triplicate ECGs were also measured at the end of the studies or upon early termination.
# These were back-transformed to obtain the GMRs and corresponding 90% CIs on the original scale. The ratios were expressed as a percentage relative to the reference treatment.
# CYP2D6 = conditions: cited from earlier work
# [5] = single radiolabeled dose of 100 mg
# [6] = study 2, encorafenib 100 mg + rabeprazole
# [7] = study 2, encorafenib 100 mg + rabeprazole vs alone
# [8] = study 2, encorafenib 100 mg alone
# [9] = study 2, encorafenib 300 mg alone
structure (smiles),measurement,setting,value
"COC(=O)N[C@@H](C)CNc1nccc(-c2cn(C(C)C)nc2-c2cc(Cl)cc(NS(C)(=O)=O)c2F)n1 [encorafenib, Encorafenib]",BCS class behavior,[1]; amorphous drug in the capsule formulation (amorphous solid dispersion),class 1
same,solubility,"[1]; aqueous buffer, at pH 6.8, experimental data, read-out: reference solubility (amorphous)",200 µg/mL
same,amorphous solubility higher than crystalline solubility,[1]; at pH 6.8,20 fold
same,logD,"[1]; at pH 6.8, experimental data",1.8
same,solubility,"[1]; at pH 6.8, experimental data, read-out: reference solubility (crystalline)",10 µg/mL
same,Biopharmaceutics Classification System (BCS) class,[1]; drug substance,class 2
same,logP,[1]; experimental data,2.59
same,particle radius,"[1]; experimental data, PBPK input",5 μm
same,pKa,"[1]; experimental data, read-out: pKa (acid)",6.97
same,pKa,"[1]; experimental data, read-out: pKa (base)",4.53
same,mean precipitation time,[2],90000 s
same,gut CYP3A4 Km,CYP3A4,213.9 mg/L
same,gut CYP3A4 Vmax,CYP3A4,0.0945 mg/s
same,liver CYP3A4 Km,CYP3A4,213.9 mg/L
same,liver CYP3A4 Vmax,CYP3A4,0.0945 mg/s
same,dose proportionality,[3]; dose range of 50 to 700 mg QD after a single dose,approximately dose proportional
same,apparent volume of distribution,[3]; geometric mean (coefficient of variation 70%),164 L
same,median Tmax,[3]; fasted state,approximately 2 h
same,median Tmax,[3]; fed state,~4 h
same,dose absorbed,[3]; oral,at least 86%
same,administered dose recovered in feces,[3]; [5],47%
same,administered dose recovered in feces unchanged,[3]; [5],5%
same,administered dose recovered in urine,[3]; [5],47%
same,administered dose recovered in urine unchanged,[3]; [5],2%
same,tolerability,"[4]; 300 mg dose compared with 100 mg dose, healthy participants",tolerated with more difficulty
same,AUC(0-inf),"[4]; human, plasma, oral, 100 mg",4140 ng·h/mL
same,AUC(0-t),"[4]; human, plasma, oral, 100 mg",4120 ng·h/mL
same,Cmax,"[4]; human, plasma, oral, 100 mg",1040 ng/mL
same,Tmax,"[4]; human, plasma, oral, 100 mg, study 2, encorafenib 100 mg alone, read-out: Tmax",1.5 h
same,Vd/F,"[4]; human, plasma, oral, 100 mg",247 ± 208 L
same,half-life,"[4]; human, plasma, oral, 100 mg, read-out: t1/2 (converted)",7.53 ± 7.58 h
same,AUC(0-inf),"[4]; human, plasma, oral, 300 mg",14800 ng·h/mL
same,AUC(0-t),"[4]; human, plasma, oral, 300 mg",14700 ng·h/mL
same,Cmax,"[4]; human, plasma, oral, 300 mg",3900 ng/mL
same,Tmax,"[4]; human, plasma, oral, 300 mg, study 2, encorafenib 300 mg alone, read-out: Tmax",1.5 h
same,Vd/F,"[4]; human, plasma, oral, 300 mg",470 ± 339 L
same,half-life,"[4]; human, plasma, oral, 300 mg, read-out: t½ (converted)",15.9 ± 11.6 h
same,Tmax,"[4]; human, plasma, oral, study 2, encorafenib 100 mg + rabeprazole, read-out: Tmax",2 h
same,"changes in vital signs, laboratory values, or ECG measurements",[4]; study 2,No clinically significant changes
same,participants reporting feeling hot,[4]; study 2,53%
same,participants reporting flushing,[4]; study 2,80%
same,participants reporting headache,[4]; study 2,93%
same,number of AEs of grade 2/moderate severity,"[4]; study 2 (headache, nausea, myalgia)",3 AEs
same,participants reporting AEs,[4]; [6],82%
same,mean change in AUCinf with PPI coadministration,[4]; [7],< 10%
same,mean change in AUClast with PPI coadministration,[4]; [7],< 10%
same,mean change in Cmax with PPI coadministration,[4]; [7],< 10%
same,number of AEs reported,"[4]; study 2, encorafenib 100 mg + rabeprazole, 11 participants",23 AEs
same,CL/F,[4]; [6],26.31 ± 9.1417 L/h
same,participants reporting AEs,[4]; [8],90%
same,number of AEs reported,"[4]; study 2, encorafenib 100 mg alone, 10 participants",24 AEs
same,CL/F,[4]; [8],25.33 ± 8.0601 L/h
same,Tmax,[4]; [8],"1.503 (1.01, 2.00) h"
same,participants reporting AEs,[4]; [9],100%
same,number of AEs reported,"[4]; study 2, encorafenib 300 mg alone, 15 participants",106 AEs
same,CL/F,[4]; [9],20.59 ± 3.9043 L/h
same,participants who discontinued due to an AE,"[4]; study 2, of 15 participants",1 participants
same,participants reporting AEs,"[4]; study 2, overall",15 of 15
same,share of metabolism by CYP2D6,CYP2D6,1%
